Data: ChEMBL document CHEMBL5365457, “Selective HDAC3 Inhibitors with Potent In Vivo Antitumor Efficacy against Triple-Negative Breast Cancer” (J Med Chem, 2023)

Legend:
[1] = Selectivity ratio of IC50 for cytotoxicity against human HCEC cells assessed as inhibition of cell growth to IC50 for cytotoxicity against human MCF7 cells assessed as inhibition of cell growth; assay type: toxicity, cell-based; settings: HCEC cells versus MCF7 cells, read-out: Ratio IC50
[2] = Selectivity ratio of IC50 for cytotoxicity against human MCF-10A cells assessed as inhibition of cell growth to IC50 for cytotoxicity against human MDA-MB-231 cells assessed as inhibition of cell growth; assay type: toxicity, cell-based; settings: MCF-10A cells versus MDA-MB-231 cells, read-out: Ratio IC50
[3] = system: MCF7; test: Cytotoxicity against human MCF7 cells assessed as inhibition of cell growth incubated for 72 hrs by MTT assay; assay type: functional, cell-based; settings: MCF7, 72 h
[4] = Selectivity ratio of IC50 for cytotoxicity against human MCF-10A cells assessed as inhibition of cell growth to IC50 for cytotoxicity against […] cells assessed as inhibition of cell growth; assay type: toxicity, cell-based; settings: MCF-10A cells versus 4T1 cells, read-out: Ratio IC50
[5] = Selectivity ratio of IC50 for cytotoxicity against human HCEC cells assessed as inhibition of cell growth to IC50 for cytotoxicity against mouse 4T1 cells assessed as inhibition of cell growth; assay type: toxicity, cell-based; settings: HCEC cells versus 4T1 cells, read-out: Ratio IC50
[6] = Cytotoxicity against human MCF-10A cells assessed as inhibition of cell growth incubated for 72 hrs by MTT assay; assay type: toxicity, cell-based
[7] = Selectivity ratio of IC50 for cytotoxicity against human HCEC cells assessed as inhibition of cell growth to IC50 for cytotoxicity against human MDA-MB-231 cells assessed as inhibition of cell growth; assay type: toxicity, cell-based; settings: HCEC cells versus MDA-MB-231 cells, read-out: Ratio IC50
[8] = Selectivity ratio of IC50 for cytotoxicity against human MCF-10A cells assessed as inhibition of cell growth to IC50 for cytotoxicity against human MCF7 cells assessed as inhibition of cell growth; assay type: toxicity, cell-based; settings: MCF-10A cells versus MCF7 cells, read-out: Ratio IC50
[9] = Selectivity ratio of IC50 for cytotoxicity against human MCF-10A cells assessed as inhibition of cell growth to IC50 for cytotoxicity against human MDA-MB-453 cells assessed as inhibition of cell growth; assay type: toxicity, cell-based; settings: MCF-10A cells versus MDA-MB-453 cells, read-out: Ratio IC50
[10] = system: MDA-MB-453; test: Cytotoxicity against human MDA-MB-453 cells assessed as inhibition of cell growth incubated for 72 hrs by MTT assay; assay type: functional, cell-based; settings: MDA-MB-453, 72 h
[11] = Selectivity ratio of IC50 for cytotoxicity against human HEK293 cells assessed as inhibition of cell growth to IC50 for cytotoxicity against human MCF7 cells assessed as inhibition of cell growth; assay type: toxicity, cell-based; settings: HEK293 cells versus MCF7 cells, read-out: Ratio IC50
[12] = system: 4T1; test: Cytotoxicity against mouse 4T1 cells assessed as inhibition of cell growth incubated for 72 hrs by MTT assay; assay type: functional, cell-based; settings: 4T1, 72 h
[13] = Selectivity ratio of IC50 for cytotoxicity against human HCEC cells assessed as inhibition of cell growth to IC50 for cytotoxicity against human MDA-MB-453 cells assessed as inhibition of cell growth; assay type: toxicity, cell-based; settings: HCEC cells versus MDA-MB-453 cells, read-out: Ratio IC50
[14] = Cytotoxicity against human HCEC cells assessed as inhibition of cell growth incubated for 72 hrs by MTT assay; assay type: toxicity, cell-based; settings: human, HCEC cells
[15] = Cytotoxicity against human HEK293 cells assessed as inhibition of cell growth incubated for 72 hrs by MTT assay; assay type: toxicity, cell-based
[16] = Selectivity ratio of IC50 for cytotoxicity against human HEK293 cells assessed as inhibition of cell growth to IC50 for cytotoxicity against mouse 4T1 cells assessed as inhibition of cell growth; assay type: toxicity, cell-based; settings: HEK293 cells versus 4T1 cells, read-out: Ratio IC50
[17] = system: MDA-MB-231; test: Cytotoxicity against human MDA-MB-231 cells assessed as inhibition of cell growth incubated for 72 hrs by MTT assay; assay type: functional, cell-based; settings: MDA-MB-231, 72 h
[18] = Selectivity ratio of IC50 for cytotoxicity against human HEK293 cells assessed as inhibition of cell growth to IC50 for cytotoxicity against human MDA-MB-231 cells assessed as inhibition of cell growth; assay type: toxicity, cell-based; settings: HEK293 cells versus MDA-MB-231 cells, read-out: Ratio IC50
[19] = Selectivity ratio of IC50 for cytotoxicity against human HEK293 cells assessed as inhibition of cell growth to IC50 for cytotoxicity against human MDA-MB-453 cells assessed as inhibition of cell growth; assay type: toxicity, cell-based; settings: HEK293 cells versus MDA-MB-453 cells, read-out: Ratio IC50
[20] = target: Histone deacetylase 3 (Homo sapiens, UniProt O15379); test: Inhibition of human recombinant HDAC3 at 1 uM measured after 30 mins by fluorescence based microplate assay relative to control
Chain of Histone deacetylase 3 (O15379 whole entry): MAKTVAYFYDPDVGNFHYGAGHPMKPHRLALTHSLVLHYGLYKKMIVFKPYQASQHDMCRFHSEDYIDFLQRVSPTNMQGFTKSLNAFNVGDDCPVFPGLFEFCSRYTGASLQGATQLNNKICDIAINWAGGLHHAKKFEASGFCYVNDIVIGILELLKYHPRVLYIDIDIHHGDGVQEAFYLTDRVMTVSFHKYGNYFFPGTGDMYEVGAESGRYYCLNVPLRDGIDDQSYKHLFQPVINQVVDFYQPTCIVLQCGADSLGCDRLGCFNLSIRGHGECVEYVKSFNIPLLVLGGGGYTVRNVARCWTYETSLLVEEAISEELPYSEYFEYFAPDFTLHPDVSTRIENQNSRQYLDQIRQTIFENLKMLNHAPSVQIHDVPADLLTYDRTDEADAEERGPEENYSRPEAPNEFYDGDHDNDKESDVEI

| inhibition [20] | SMILES | selectivity ratio [1] | selectivity ratio [2] | IC50 [3] | selectivity ratio [4] | selectivity ratio [5] | IC50 at 72 h [6] | selectivity ratio [7] | selectivity ratio [8] | selectivity ratio [9] | IC50 [10] | selectivity ratio [11] | IC50 [12] | selectivity ratio [13] | IC50 at 72 h [14] | IC50 at 72 h [15] | selectivity ratio [16] | IC50 [17] | selectivity ratio [18] | selectivity ratio [19] |
| --- | --- | --- | --- | --- | --- | --- | --- | --- | --- | --- | --- | --- | --- | --- | --- | --- | --- | --- | --- | --- |
|  | CCCNNC(=O)c1cnc(N2CCCCC2)cn1 | > 40 | > 40 | 2.44 µM | > 40 | > 40 | 110 µM | > 40 | > 40 | > 40 | 2.87 µM | > 40 | 0.89 µM | > 40 | 163 µM | 118 µM | > 40 | 132 µM | > 40 | > 40 |
| > 70% | CCCCNNC(=O)c1cnc(NCc2ccccc2)cn1 | > 40 | > 40 | 2.16 µM | > 40 | > 40 | 113 µM | > 40 | > 40 | > 40 | 3.33 µM | > 40 | 1.6 µM | > 40 | 129 µM | 133 µM | > 40 | 132 µM | > 40 | > 40 |
|  | CCCNNC(=O)c1cnc(NC(C)=O)cn1 | > 40 | > 40 | 1.21 µM | > 40 | > 40 | 142 µM | > 40 | > 40 | > 40 | 1.93 µM | > 40 | 0.92 µM | > 40 | 164 µM | 118 µM | > 40 | 0.97 µM | > 40 | > 40 |
|  | CCCNNC(=O)c1cnccn1 | > 40 | > 40 | 1.39 µM | > 40 | > 40 | 117 µM | > 40 | > 40 | > 40 | 2.49 µM | > 40 | 1.14 µM | > 40 | 128 µM | 134 µM | > 40 | 1.07 µM | > 40 | > 40 |
|  | CCCCNNC(=O)c1cnc(NC(=O)c2ccc3ncccc3c2)cn1 | > 40 | > 40 | 1.36 µM | > 40 | > 40 | 220 µM | > 40 | > 40 | > 40 | 4.92 µM | > 40 | 2.92 µM | > 40 | 234 µM | 264 µM | > 40 | 2.84 µM | > 40 | > 40 |
|  | CCCCNNC(=O)c1cnc(NC(C)=O)cn1 |  |  | 1.65 µM |  |  | 106 µM |  |  |  | 7.94 µM |  | 2.74 µM |  | 187 µM | 229 µM |  | 3.05 µM |  |  |
|  | CCCCNNC(=O)c1cnc(N2CCCCC2)cn1 |  |  | 1.87 µM |  |  | 104 µM |  |  |  | 6.79 µM |  | 3.86 µM |  | 119 µM | 101 µM |  | 2.93 µM |  |  |
|  | CCCCNNC(=O)c1cnc(NC(=O)c2ccc3[nH]ccc3c2)cn1 |  |  | 2.44 µM |  |  | 105 µM |  |  |  | 4.05 µM |  | 1.43 µM |  | 130 µM | 107 µM |  | 1.69 µM |  |  |
|  | CCCCNNC(=O)c1cnc(Nc2ccccc2)cn1 | > 40 | > 40 | 1.14 µM | > 40 | > 40 | 138 µM | > 40 | > 40 | > 40 | 5.18 µM | > 40 | 2.17 µM | > 40 | 180 µM | 207 µM | > 40 | 1.91 µM | > 40 | > 40 |
|  | CCCNNC(=O)c1cnc(N)cn1 | > 40 | > 40 | 0.99 µM | > 40 | > 40 | 139 µM | > 40 | > 40 | > 40 | 2.43 µM | > 40 | 1.08 µM | > 40 | 220 µM | 141 µM | > 40 | 0.88 µM | > 40 | > 40 |
|  | CCCCNNC(=O)c1cnc(Nc2cccc3ccccc23)cn1 | > 40 | > 40 | 4.16 µM | > 40 | > 40 | 114 µM | > 40 | > 40 | > 40 | 4.67 µM | > 40 | 0.98 µM | > 40 | 151 µM | 189 µM | > 40 | 2.02 µM | > 40 | > 40 |
|  | CCCCNNC(=O)c1cnccn1 | > 40 | > 40 | 2.44 µM | > 40 | > 40 | 103 µM | > 40 | > 40 | > 40 | 2.52 µM | > 40 | 0.88 µM | > 40 | 175 µM | 101 µM | > 40 | 1.17 µM | > 40 | > 40 |
|  | CCCCNNC(=O)c1cnc(N)cn1 | > 40 | > 40 | 1.81 µM | > 40 | > 40 | 118 µM | > 40 | > 40 | > 40 | 3.33 µM | > 40 | 1.27 µM | > 40 | 215 µM | 133 µM | > 40 | 1.25 µM | > 40 | > 40 |
|  | CCCNNC(=O)c1cnc(Nc2cccc3ccccc23)cn1 | > 40 | > 40 | 1.51 µM | > 40 | > 40 | 112 µM | > 40 | > 40 | > 40 | 2.89 µM | > 40 | 0.94 µM | > 40 | 126 µM | 116 µM | > 40 | 1.74 µM | > 40 | > 40 |
